Test system: 233499-124-R-J3-PDC spheroids with HUVEC/MSC, viability
Experiment: Anticancer human tumor 233499-124-R-J3-PDC patient-derived colon adenocarcinoma cell line growth inhibition [PI3K]
Details: for IC50: curve of first compound; for viability, T/C: stronger effect = lower value
Source text: Combinatorial screen of targeted agents with the PI3K inhibitors inavolisib, alpelisib, duvelisib, and copanlisib in multi-cell type tumor spheroids
A high-throughput screen of multi-cell type tumor spheroids was designed to identify active combinations of targeted small molecules and PI3K pathway inhibitors. Complex spheroids include a stromal component modeled by human endothelial cells (HUVEC) and fibroblasts modeled by human mesenchymal stem cells (MSCs). The concentration ranges selected for each drug and investigational agent were based upon clinically achievable concentrations if the clinical Cmax of the agent was known.
Compounds. The drugs and investigational agents: inavolisib (NSC800729), alpelisib (NSC765974), duvelisib (NSC772469), copanlisib (NSC816437), ipatasertib (NSC767898), afuresertib (NSC778305), talazoparib (NSC767125), sapanisertib (NSC764658), selumetinib (NSC741078), tovorafenib (DAY101, NSC766906), vemurafenib (NSC761431), ravoxertinib (NSC781343), sotorasib (NSC818433), MRTX1133 (NSC 836407), abemaciclib (NSC 768073), palbociclib (NSC758247), venetoclax (NSC 766270), SY5609 (NSC837396), enzalutamide (NSC755605), and darolutamide (NSC825331), were obtained from the National Cancer Institute (NCI) Developmental Therapeutics Program Chemical Repository. The FDA-approved anticancer drug set is available from the NCI Developmental Therapeutics Program. […] The stock solutions were prepared in dimethyl sulfoxide (DMSO, Sigma-Aldrich, St. Louis, MO, cat. D2650) at 800-fold the tested concentration and stored at -70 degrees C prior to their use. All drugs and investigational agents were tested over a range starting from a high concentration at or near the clinical Cmax and decreasing in half-log increments. If the clinical Cmax for an agent had not been determined, the highest concentration tested was 10 microM.
Cell Culture. All cells were maintained in an incubator at 37 degrees C and 5% CO2 with 95% humidity. The PDC lines were cultured according to standard operating procedures established by the NCI PDMR (https://pdmr.cancer.gov/sops/default.htm). All PDCs were thawed and cultured in Matrigel-coated flasks prepared with a working solution of 1X Ham's F-12 nutrient mix, without supplementation (Invitrogen, Waltham, MA, cat. 11765054), 100 U/mL penicillin-streptomycin (Invitrogen, cat. 15140122), and 2.5% Matrigel (Corning Inc., Corning, NY, cat. 354248) for the first three passages. The 354836-022-R-J1-PDC, 475296-252-R-J1-PDC, and 997726-040-R-J2-PDC lines were cultured in 6A media, which includes advanced DMEM/F-12 (Thermo Fisher Scientific, cat. 12634028), 10 mM HEPES (Thermo Fisher Scientific, cat. 15630080), 1X GlutaMAX supplement (Thermo Fisher Scientific, cat. 35050061), 0.1 mg/mL primocin (InvivoGen, San Diego, CA, cat. ant-pm-2), 10% defined fetal bovine serum, heat inactivated (HyClone Laboratories Inc., Logan, UT, cat. SH30070.03HI), 50% L-WRN conditioned media (ATCC, cat. CRL-3276), 1.25 mM N-Acetyl-L-cysteine (Sigma-Aldrich, cat. A9165), 10 mM nicotinamide (Sigma-Aldrich, cat. N0636), 1X B-27 supplement (Thermo Fisher Scientific, cat. 17504044), 1X N-2 supplement (Thermo Fisher Scientific, cat. 17502048), and 10 microM Y-27632 dihydrochloride (Tocris Bioscience, Bristol, United Kingdom, cat. 1254). The 624824-186-R-J2-PDC line was cultured in 6C/Colon 1B media, which includes all 6A media components plus 50 ng/mL human EGF recombinant protein (Thermo Fisher Scientific, cat. PHG0311). […]

[1] = second compound 0.00316 µM, first compound 0.0316 µM
[2] = second compound 0.00316 µM, first compound 0.1 µM
[3] = second compound 0.01 µM, first compound 0.0316 µM
[4] = second compound 0.01 µM, first compound 0.1 µM
[5] = second compound 0.0316 µM, first compound 0.0316 µM
[6] = second compound 0.0316 µM, first compound 0.1 µM
[7] = second compound 0.1 µM, first compound 0.0316 µM
[8] = second compound 0.1 µM, first compound 0.1 µM
[9] = second compound 0.316 µM, first compound 0.0316 µM
[10] = second compound 0.316 µM, first compound 0.1 µM
[11] = second compound 1 µM, first compound 0.0316 µM
[12] = second compound 1 µM, first compound 0.1 µM
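Further: spheroids exposed to agents for seven days before readout.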
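Wherever viability, T/C is given: percent viability relative to DMSO vehicle control taken as 100%.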

## CC(C)n1nc(-c2ccc3oc(N)nc3c2)c2c(N)ncnc21 + CC(Nc1ccc2c(c1)OCCn1cc(N3C(=O)OCC3C(F)F)nc1-2)C(N)=O
Second compound 0.00316 µM
  IC50: > 100 nM
Second compound 0.01 µM
  IC50: > 100 nM
Second compound 0.0316 µM
  IC50: > 100 nM
Second compound 0.1 µM
  IC50: 53.3 nM
Second compound 0.316 µM
  IC50: 15.1 nM
Second compound 1 µM
  IC50: 3.69 nM
Second compound 0.00316 µM, first compound 0.000316 µM
  viability, T/C: 73.5%
Second compound 0.00316 µM, first compound 0.001 µM
  viability, T/C: 90.1%
Second compound 0.00316 µM, first compound 0.00316 µM
  viability, T/C: 88%
Second compound 0.00316 µM, first compound 0.01 µM
  viability, T/C: 95.7%
[1]
  viability, T/C: 81%
[2]
  viability, T/C: 50.2%
Second compound 0.01 µM, first compound 0.000316 µM
  viability, T/C: 97.8%
Second compound 0.01 µM, first compound 0.001 µM
  viability, T/C: 92.7%
Second compound 0.01 µM, first compound 0.00316 µM
  viability, T/C: 105%
Second compound 0.01 µM, first compound 0.01 µM
  viability, T/C: 89.4%
[3]
  viability, T/C: 78.3%
[4]
  viability, T/C: 57.5%
Second compound 0.0316 µM, first compound 0.000316 µM
  viability, T/C: 103%
Second compound 0.0316 µM, first compound 0.001 µM
  viability, T/C: 83%
Second compound 0.0316 µM, first compound 0.00316 µM
  viability, T/C: 85.9%
Second compound 0.0316 µM, first compound 0.01 µM
  viability, T/C: 70.3%
[5]
  viability, T/C: 91%
[6]
  viability, T/C: 60.8%
Second compound 0.1 µM, first compound 0.000316 µM
  viability, T/C: 84%
Second compound 0.1 µM, first compound 0.001 µM
  viability, T/C: 61.3%
Second compound 0.1 µM, first compound 0.00316 µM
  viability, T/C: 66%
Second compound 0.1 µM, first compound 0.01 µM
  viability, T/C: 77%
[7]
  viability, T/C: 66.6%
[8]
  viability, T/C: 29.1%
Second compound 0.316 µM, first compound 0.000316 µM
  viability, T/C: 82.7%
Second compound 0.316 µM, first compound 0.001 µM
  viability, T/C: 49.3%
Second compound 0.316 µM, first compound 0.00316 µM
  viability, T/C: 73.5%
Second compound 0.316 µM, first compound 0.01 µM
  viability, T/C: 46.6%
[9]
  viability, T/C: 52.8%
[10]
  viability, T/C: 24.2%
Second compound 1 µM, first compound 0.000316 µM
  viability, T/C: 49.8%
Second compound 1 µM, first compound 0.001 µM
  viability, T/C: 48.4%
Second compound 1 µM, first compound 0.00316 µM
  viability, T/C: 59.2%
Second compound 1 µM, first compound 0.01 µM
  viability, T/C: 41.2%
[11]
  viability, T/C: 26.3%
[12]
  viability, T/C: 12.3%

## CCCS(=O)(=O)Nc1ccc(F)c(C(=O)c2c[nH]c3ncc(-c4ccc(Cl)cc4)cc23)c1F + CC(Nc1ccc2c(c1)OCCn1cc(N3C(=O)OCC3C(F)F)nc1-2)C(N)=O
Second compound 0.00316 µM
  IC50: 5620 nM
Second compound 0.01 µM
  IC50: 5140 nM
Second compound 0.0316 µM
  IC50: 4720 nM
Second compound 0.1 µM
  IC50: 5020 nM
Second compound 0.316 µM
  IC50: 3380 nM
Second compound 1 µM
  IC50: 1790 nM
[1]
  viability, T/C: 80%
[2]
  viability, T/C: 97.9%
Second compound 0.00316 µM, first compound 0.316 µM
  viability, T/C: 98.6%
Second compound 0.00316 µM, first compound 1 µM
  viability, T/C: 105%
Second compound 0.00316 µM, first compound 3.16 µM
  viability, T/C: 104%
Second compound 0.00316 µM, first compound 10 µM
  viability, T/C: 2.87%
[3]
  viability, T/C: 90.2%
[4]
  viability, T/C: 94.5%
Second compound 0.01 µM, first compound 0.316 µM
  viability, T/C: 97.1%
Second compound 0.01 µM, first compound 1 µM
  viability, T/C: 98.2%
Second compound 0.01 µM, first compound 3.16 µM
  viability, T/C: 84.9%
Second compound 0.01 µM, first compound 10 µM
  viability, T/C: 2.03%
[5]
  viability, T/C: 77.3%
[6]
  viability, T/C: 90.3%
Second compound 0.0316 µM, first compound 0.316 µM
  viability, T/C: 85.8%
Second compound 0.0316 µM, first compound 1 µM
  viability, T/C: 101%
Second compound 0.0316 µM, first compound 3.16 µM
  viability, T/C: 75.8%
Second compound 0.0316 µM, first compound 10 µM
  viability, T/C: 1.54%
[7]
  viability, T/C: 84.8%
[8]
  viability, T/C: 83.9%
Second compound 0.1 µM, first compound 0.316 µM
  viability, T/C: 88.5%
Second compound 0.1 µM, first compound 1 µM
  viability, T/C: 88.3%
Second compound 0.1 µM, first compound 3.16 µM
  viability, T/C: 82.8%
Second compound 0.1 µM, first compound 10 µM
  viability, T/C: 0.93%
[9]
  viability, T/C: 86.6%
[10]
  viability, T/C: 66.6%
Second compound 0.316 µM, first compound 0.316 µM
  viability, T/C: 66.9%
Second compound 0.316 µM, first compound 1 µM
  viability, T/C: 69.2%
Second compound 0.316 µM, first compound 3.16 µM
  viability, T/C: 54.5%
Second compound 0.316 µM, first compound 10 µM
  viability, T/C: 4.16%
[11]
  viability, T/C: 73%
[12]
  viability, T/C: 45.4%
Second compound 1 µM, first compound 0.316 µM
  viability, T/C: 54.9%
Second compound 1 µM, first compound 1 µM
  viability, T/C: 61%
Second compound 1 µM, first compound 3.16 µM
  viability, T/C: 41.8%
Second compound 1 µM, first compound 10 µM
  viability, T/C: 2.26%
